Assay results as given in patent publication US11912701B2, “Protein kinase inhibitors for promoting liver regeneration or reducing or preventing hepatocyte death” (HEPAREGENIX GMBH, priority 2018, dated 2024).

Assays:
Assay type in all cases: biochemical
MKK4 = target: T1, MKK4 (Homo sapiens, UniProt P45985); assay: 33PanQinase enzyme assay, MKK4; details: assay 'IC50'; for IC50: read-out: Potency MKK4 (IC50)
T1 construct: purchased ProQinase GmbH, Freiburg, Germany (33PanQinase Assay Service)
T1 sequence (P45985 1-399): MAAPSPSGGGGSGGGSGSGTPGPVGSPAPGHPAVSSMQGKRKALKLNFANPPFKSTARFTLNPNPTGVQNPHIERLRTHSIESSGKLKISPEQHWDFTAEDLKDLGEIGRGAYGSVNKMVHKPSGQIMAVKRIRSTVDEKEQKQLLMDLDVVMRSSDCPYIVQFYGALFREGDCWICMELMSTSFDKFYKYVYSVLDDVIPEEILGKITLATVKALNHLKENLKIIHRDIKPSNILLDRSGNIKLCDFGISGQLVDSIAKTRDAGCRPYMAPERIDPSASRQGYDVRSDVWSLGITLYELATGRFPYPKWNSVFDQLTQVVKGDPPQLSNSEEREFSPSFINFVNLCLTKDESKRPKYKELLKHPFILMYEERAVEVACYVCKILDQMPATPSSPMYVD
In short: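 Inhibition measured as 33Pi transfer to substrate after a 60-min, 30 °C reaction, acid-stopped and scintillation-counted.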

BRaf = target: T2, BRaf (Homo sapiens, UniProt P15056); assay: 33PanQinase enzyme assay, BRaf; details: ratio IC50(BRaf)/IC50(MKK4)
T2 construct: purchased ProQinase GmbH, Freiburg, Germany (33PanQinase Assay Service)
T2 sequence (P15056 whole entry, species assumed): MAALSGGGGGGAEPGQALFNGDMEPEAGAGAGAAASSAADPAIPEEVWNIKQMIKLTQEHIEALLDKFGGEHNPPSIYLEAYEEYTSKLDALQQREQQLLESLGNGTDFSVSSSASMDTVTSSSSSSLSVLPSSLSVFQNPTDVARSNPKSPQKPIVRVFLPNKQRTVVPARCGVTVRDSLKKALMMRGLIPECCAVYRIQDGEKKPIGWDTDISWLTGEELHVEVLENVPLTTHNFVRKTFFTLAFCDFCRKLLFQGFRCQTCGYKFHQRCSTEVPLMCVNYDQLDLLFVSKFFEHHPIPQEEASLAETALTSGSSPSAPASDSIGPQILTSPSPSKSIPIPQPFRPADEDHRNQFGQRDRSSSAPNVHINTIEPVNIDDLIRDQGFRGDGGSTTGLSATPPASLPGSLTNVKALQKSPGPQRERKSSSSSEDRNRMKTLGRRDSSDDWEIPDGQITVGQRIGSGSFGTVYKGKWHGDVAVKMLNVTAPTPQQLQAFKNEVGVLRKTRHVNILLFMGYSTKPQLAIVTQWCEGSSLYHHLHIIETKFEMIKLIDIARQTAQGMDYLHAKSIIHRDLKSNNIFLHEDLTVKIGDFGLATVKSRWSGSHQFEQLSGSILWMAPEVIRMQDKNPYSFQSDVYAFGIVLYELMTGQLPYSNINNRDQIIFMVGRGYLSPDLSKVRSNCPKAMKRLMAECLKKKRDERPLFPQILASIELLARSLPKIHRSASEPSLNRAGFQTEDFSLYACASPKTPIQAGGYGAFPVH
In short: (§1)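 33Pi incorporation, read by microplate scintillation counting, measured kinase activity after 60 min at 30 °C. Reactions were quenched with 2% (v/v) H3PO4 and washed with 0.9% NaCl. IC50 derived by least-squares fitting; single doses reported as % residual activity.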

JNK1 = JNK1 (Homo sapiens, UniProt P45983); assay: 33PanQinase enzyme assay, JNK1; design: purchased ProQinase GmbH, Freiburg, Germany (33PanQinase Assay Service); details: ratio IC50(JNK1)/IC50(MKK4)
Sequence of JNK1 (P45983 whole entry): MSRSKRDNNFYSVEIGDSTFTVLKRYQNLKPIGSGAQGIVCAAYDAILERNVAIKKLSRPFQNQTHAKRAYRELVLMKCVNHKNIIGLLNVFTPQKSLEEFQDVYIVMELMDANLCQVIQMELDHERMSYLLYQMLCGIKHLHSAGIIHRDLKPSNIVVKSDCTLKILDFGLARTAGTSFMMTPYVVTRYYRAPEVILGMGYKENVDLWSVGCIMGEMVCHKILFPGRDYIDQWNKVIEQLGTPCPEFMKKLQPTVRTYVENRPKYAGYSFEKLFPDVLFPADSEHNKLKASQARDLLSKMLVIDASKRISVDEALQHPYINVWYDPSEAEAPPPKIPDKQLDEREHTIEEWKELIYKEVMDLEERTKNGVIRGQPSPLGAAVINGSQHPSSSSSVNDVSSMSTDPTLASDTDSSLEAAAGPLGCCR
In short: as §1

MKK7 = target: T3, MKK7 (Homo sapiens, UniProt O14733); assay: 33PanQinase enzyme assay, MKK7; design: purchased ProQinase GmbH, Freiburg, Germany (33PanQinase Assay Service); details: ratio IC50(MKK7)/IC50(MKK4)
T3 sequence (O14733 1-419): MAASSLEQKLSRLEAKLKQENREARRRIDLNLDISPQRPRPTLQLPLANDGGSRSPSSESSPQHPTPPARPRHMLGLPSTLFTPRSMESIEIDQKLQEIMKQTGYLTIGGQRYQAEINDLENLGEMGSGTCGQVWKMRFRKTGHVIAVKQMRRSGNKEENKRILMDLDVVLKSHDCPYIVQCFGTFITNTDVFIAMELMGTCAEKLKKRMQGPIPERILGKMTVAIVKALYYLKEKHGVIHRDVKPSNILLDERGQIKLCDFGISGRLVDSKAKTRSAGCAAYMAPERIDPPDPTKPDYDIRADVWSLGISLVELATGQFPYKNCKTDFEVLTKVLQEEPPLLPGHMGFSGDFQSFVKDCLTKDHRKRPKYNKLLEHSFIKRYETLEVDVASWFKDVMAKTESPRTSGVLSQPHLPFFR
In short: as §1

SMILES	IC50 (MKK4)	Selectivity Braf, IC50(off-target)/IC50(MKK4) (BRaf)	Selectivity IVIKK7, IC50(off-target)/IC50(MKK4) (MKK7)	Potency MKK4 (IC50) (MKK4)	Selectivity JNK1, IC50(off-target)/IC50(MKK4) (JNK1)
C#Cc1ncc(-c2cnc3[nH]cc(C(=O)c4ccc(F)c(NS(=O)(=O)CCC)c4F)c3c2)cn1 [Example 208, N-(3-(5-(2-ethynylpyrimidin-5-yl)-1H-pyrrolo[2,3-b]pyridine-3-carbonyl)-2,6-difluorophenyl)propane-1-sulfonamide]	< 100 nM	++ (100 ≥ IC50(off-target)/IC50(MKK4) > 10)	++ (100 ≥ IC50(off-target)/IC50(MKK4) > 10)		+++ (IC50(off-target)/IC50(MKK4) > 100)
CCCS(=O)(=O)Nc1c(F)ccc(C(=O)c2c[nH]c3ncc(-c4cnc(-c5ccc6nc[nH]c6c5)nc4)cc23)c1F [Example 210, N-(3-(5-(2-(1H-benzo[d]imidazol-6-yl)pyrimidin-5-yl)-1H-pyrrolo[2,3-b]pyridine-3-carbonyl)-2,6-difluorophenyl)propane-1-sulfonamide]	1000 to 10000 nM	++ (100 ≥ IC50(off-target)/IC50(MKK4) > 10)	++ (100 ≥ IC50(off-target)/IC50(MKK4) > 10)		+ (10 ≥ IC50(off-target)/IC50(MKK4) > 3)
Nc1c(F)ccc(C(=O)c2c[nH]c3ncc(-c4ccc(Cl)cc4)cc23)c1F [Example 212, (3-amino-2,4-difluorophenyl)(5-(4-chlorophenyl)-1H-pyrrolo[2,3-b]pyridin-3-yl)methanone]	100 to 1000 nM	+ (10 ≥ IC50(off-target)/IC50(MKK4) > 3)	+++ (IC50(off-target)/IC50(MKK4) > 100)		◯ (3 ≥ IC50(off-target)/IC50(MKK4))
CS(=O)(=O)Nc1c(F)ccc(C(=O)c2c[nH]c3ncc(-c4cccc5ccccc45)cc23)c1F [Example 214, N-(2,6-difluoro-3-(5-(naphthalen-1-yl)-1H-pyrrolo[2,3-b]pyridine-3-carbonyl)phenyl)methanesulfonamide]	100 to 1000 nM	+++ (IC50(off-target)/IC50(MKK4) > 100)	+++ (IC50(off-target)/IC50(MKK4) > 100)		++ (100 ≥ IC50(off-target)/IC50(MKK4) > 10)
CCCS(=O)(=O)Nc1c(F)ccc(C(=O)c2c[nH]c3ncc(-c4ccccc4C)cc23)c1F [Example 215, N-(2,6-difluoro-3-(5-(o-tolyl)-1H-pyrrolo[2,3-b]pyridine-3-carbonyl)phenyl)propane-1-sulfonamide]	100 to 1000 nM	◯ (3 ≥ IC50(off-target)/IC50(MKK4))	+++ (IC50(off-target)/IC50(MKK4) > 100)		+ (10 ≥ IC50(off-target)/IC50(MKK4) > 3)
CCCS(=O)(=O)Nc1c(F)ccc(C(=O)c2c[nH]c3ncc(-c4ccc(-c5nnn[nH]5)cc4)cc23)c1F [Example 219, N-(3-(5-(4-(1H-tetrazol-5-yl)phenyl)-1H-pyrrolo[2,3-b]pyridine-3-carbonyl)-2,6-difluorophenyl)propane-1-sulfonamide]		+++ (IC50(off-target)/IC50(MKK4) > 100)	+++ (IC50(off-target)/IC50(MKK4) > 100)	++·+	++ (100 ≥ IC50(off-target)/IC50(MKK4) > 10)
CCCS(=O)(=O)Nc1c(F)ccc(C(=O)c2c[nH]c3ncc(-c4ccc(S(N)(=O)=O)cc4)cc23)c1F [Example 220, 4-(3-(2,4-difluoro-3-(propylsulfonamido)benzoyl)-1H-pyrrolo[2,3-b]pyridin-5-yl)benzenesulfonamide]	< 100 nM	++ (100 ≥ IC50(off-target)/IC50(MKK4) > 10)	+++ (IC50(off-target)/IC50(MKK4) > 100)		++ (100 ≥ IC50(off-target)/IC50(MKK4) > 10)
CCCS(=O)(=O)Nc1c(F)ccc(C(=O)c2c[nH]c3ncc(-c4ccc(F)cc4Cl)cc23)c1F [Example 221, N-(3-(5-(2-chloro-4-fluorophenyl)-1H-pyrrolo[2,3-b]pyridine-3-carbonyl)-2,6-difluorophenyl)propane-1-sulfonamide]	< 100 nM	+++ (IC50(off-target)/IC50(MKK4) > 100)	+++ (IC50(off-target)/IC50(MKK4) > 100)		++ (100 ≥ IC50(off-target)/IC50(MKK4) > 10)
CCCS(=O)(=O)Nc1c(F)ccc(C(=O)c2c[nH]c3ncc(-c4ccc(C(=O)O)cc4)cc23)c1F [Example 222, 4-(3-(2,4-difluoro-3-(propylsulfonamido)benzoyl)-1H-pyrrolo[2,3-b]pyridin-5-yl)benzoic acid]	< 100 nM	+++ (IC50(off-target)/IC50(MKK4) > 100)	+++ (IC50(off-target)/IC50(MKK4) > 100)		++ (100 ≥ IC50(off-target)/IC50(MKK4) > 10)
CCCS(=O)(=O)Nc1c(F)ccc(C(=O)c2c[nH]c3ncc(-c4cccc(C(=O)O)c4)cc23)c1F [Example 223, 3-(3-(2,4-difluoro-3-(propylsulfonamido)benzoyl)-1H-pyrrolo[2,3-b]pyridin-5-yl)benzoic acid]	< 100 nM	+ (10 ≥ IC50(off-target)/IC50(MKK4) > 3)	+++ (IC50(off-target)/IC50(MKK4) > 100)		++ (100 ≥ IC50(off-target)/IC50(MKK4) > 10)
CCCS(=O)(=O)Nc1c(F)ccc(C(=O)c2c[nH]c3ncc(-c4ccccc4C(=O)O)cc23)c1F [Example 224, 2-(3-(2,4-difluoro-3-(propylsulfonamido)benzoyl)-1H-pyrrolo[2,3-b]pyridin-5-yl)benzoic acid]	1000 to 10000 nM	◯ (3 ≥ IC50(off-target)/IC50(MKK4))	++ (100 ≥ IC50(off-target)/IC50(MKK4) > 10)		◯ (3 ≥ IC50(off-target)/IC50(MKK4))
CCCS(=O)(=O)Nc1c(F)ccc(C(=O)c2c[nH]c3ncc(-c4ccc(Cl)cc4C)cc23)c1F [Example 225, N-(3-(5-(4-chloro-2-methylphenyl)-1H-pyrrolo[2,3-b]pyridine-3-carbonyl)-2,6-difluorophenyl)propane-1-sulfonamide]	< 100 nM	+++ (IC50(off-target)/IC50(MKK4) > 100)	+++ (IC50(off-target)/IC50(MKK4) > 100)		++ (100 ≥ IC50(off-target)/IC50(MKK4) > 10)

The next lines start with results.

IC50 (MKK4)	Selectivity Braf, IC50(off-target)/IC50(MKK4) (BRaf)	Selectivity IVIKK7, IC50(off-target)/IC50(MKK4) (MKK7)	Potency MKK4 (IC50) (MKK4)	SMILES	Selectivity JNK1, IC50(off-target)/IC50(MKK4) (JNK1)
< 100 nM	+++ (IC50(off-target)/IC50(MKK4) > 100)	+++ (IC50(off-target)/IC50(MKK4) > 100)		CCCS(=O)(=O)Nc1c(F)ccc(C(=O)c2c[nH]c3ncc(-c4ccccc4Cl)cc23)c1F [Example 213, N-(3-(5-(2-chlorophenyl)-1H-pyrrolo[2,3-b]pyridine-3-carbonyl)-2,6-difluorophenyl)propane-1-sulfonamide]	++ (100 ≥ IC50(off-target)/IC50(MKK4) > 10)
< 100 nM	+++ (IC50(off-target)/IC50(MKK4) > 100)	+++ (IC50(off-target)/IC50(MKK4) > 100)		CCCS(=O)(=O)Nc1c(F)ccc(C(=O)c2c[nH]c3ncc(-c4ccc(F)cc4)cc23)c1F [Example 216, N-(2,6-difluoro-3-(5-(4-fluorophenyl)-1H-pyrrolo[2,3-b]pyridine-3-carbonyl)phenyl)propane-1-sulfonamide]	+++ (IC50(off-target)/IC50(MKK4) > 100)
< 100 nM	+++ (IC50(off-target)/IC50(MKK4) > 100)	+++ (IC50(off-target)/IC50(MKK4) > 100)		CCCS(=O)(=O)Nc1c(F)ccc(C(=O)c2c[nH]c3ncc(-c4ccc(F)cc4C)cc23)c1F [Example 217, N-(2,6-difluoro-3-(5-(4-fluoro-2-methylphenyl)-1H-pyrrolo[2,3-b]pyridine-3-carbonyl)phenyl)propane-1-sulfonamide]	+++ (IC50(off-target)/IC50(MKK4) > 100)
